Laboratory results published in ChEMBL document CHEMBL1141065, “Inhibition of mandelate racemase by the substrate-intermediate-product analogue 1,1-diphenyl-1-hydroxymethylphosphonate” (Bioorg Med Chem Lett, 2005).

Experiments:
Mandelate racemase [1] = molecular target: T1, Mandelate racemase (Pseudomonas putida, UniProt P11444); assay: Inhibitory activity against Mandelate racemase at pH 7.5 at 25 degree C
T1 sequence (P11444 whole entry): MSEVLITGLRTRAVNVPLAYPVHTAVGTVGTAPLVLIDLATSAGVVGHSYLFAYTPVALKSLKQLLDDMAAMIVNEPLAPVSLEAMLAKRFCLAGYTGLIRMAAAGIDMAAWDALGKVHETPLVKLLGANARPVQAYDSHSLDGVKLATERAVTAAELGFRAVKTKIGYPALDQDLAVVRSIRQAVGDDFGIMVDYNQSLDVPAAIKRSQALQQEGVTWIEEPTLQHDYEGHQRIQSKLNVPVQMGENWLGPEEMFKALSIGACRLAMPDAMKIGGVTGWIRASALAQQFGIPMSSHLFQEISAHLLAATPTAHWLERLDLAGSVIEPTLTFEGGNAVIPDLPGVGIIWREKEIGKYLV

Mandelate racemase [2] = molecular target: T1, Mandelate racemase; assay: Inhibitory activity against Mandelate racemase at pH 8.7 at 25 degree C
Mandelate racemase [3] = molecular target: T1, Mandelate racemase; assay: Inhibitory activity against Mandelate racemase at pH 6.3 at 25 degree C

Ki (Mandelate racemase [1]): 1.41 mM
Ki (Mandelate racemase [2]): 6.93 mM
Ki (Mandelate racemase [3]): 5.91 mM
Structure (SMILES): O=P(O)(O)C(O)(c1ccccc1)c1ccccc1
